Test results taken from article PMC5218480 (PLoS ONE, 2017).

System: MV-4-11 cells
Experiment: Gene expression microarray analysis (Affymetrix PrimeView) and GSEA
Assay type: cell-based, human
Parameters: RFU PODN (11730768_x_at) / Fold change /veh PODN (11730768_x_at) / RFU LINC00158 (11744669_a_at) / Fold change /veh LINC00158 (11744669_a_at) / RFU DUSP10 (11751237_a_at) / Fold change /veh DUSP10 (11751237_a_at) / RFU ID3 (11757404_x_at) / Fold change /veh ID3 (11757404_x_at) / RFU PLEKHG5 (11737974_s_at) / Fold change /veh PLEKHG5 (11737974_s_at) / RFU LRRC4B (11730491_at) / Fold change /veh LRRC4B (11730491_at) / RFU GIMAP4 (11747438_a_at) / Fold change /veh GIMAP4 (11747438_a_at) / RFU KRT8 (11758183_x_at) / Fold change /veh KRT8 (11758183_x_at) / RFU CNN1 (11734310_a_at) / Fold change /veh CNN1 (11734310_a_at) / RFU VPS37D (11726825_at) / Fold change /veh VPS37D (11726825_at) / RFU C10orf10 (11716522_x_at) / Fold change /veh C10orf10 (11716522_x_at) / RFU KIR2DL2 /// KIR2DL4 /// KIR2DL5A /// KIR2DL5B /// KIR2DS1 /// KIR2DS2 /// KIR2DS3 /// KIR2DS4 /// KIR3DL3 /// KIR3DL3 /// KIR3DS1 (11738374_at) / Fold change /veh KIR2DL2 /// KIR2DL4 /// KIR2DL5A /// KIR2DL5B /// KIR2DS1 /// KIR2DS2 /// KIR2DS3 /// KIR2DS4 /// KIR3DL3 /// KIR3DL3 /// KIR3DS1 (11738374_at) / RFU C1QL1 (11718748_at) / Fold change /veh C1QL1 (11718748_at) / RFU TMPRSS4 (11747572_a_at) / Fold change /veh TMPRSS4 (11747572_a_at) / RFU HAMP (11756126_x_at) / Fold change /veh HAMP (11756126_x_at) / RFU RNFT2 (11725882_a_at) / Fold change /veh RNFT2 (11725882_a_at) / RFU NR4A2 (11747474_a_at) / Fold change /veh NR4A2 (11747474_a_at) / RFU ABCC12 (11746883_a_at) / Fold change /veh ABCC12 (11746883_a_at) / RFU TMEM136 (11760407_x_at) / Fold change /veh TMEM136 (11760407_x_at) / RFU CLDN22 /// WWC2 (11732394_at) / Fold change /veh CLDN22 /// WWC2 (11732394_at) / RFU HLA-DPB1 (11760878_x_at) / Fold change /veh HLA-DPB1 (11760878_x_at) / RFU SPINT1 (11716480_a_at) / Fold change /veh SPINT1 (11716480_a_at) / RFU GAP43 (11754022_s_at) / Fold change /veh GAP43 (11754022_s_at) / RFU A4GNT (11735810_at) / Fold change /veh A4GNT (11735810_at) / RFU PRB3 (11715151_x_at) / Fold change /veh PRB3 (11715151_x_at) / RFU TUBB4B (11761932_at) / Fold change /veh TUBB4B (11761932_at) / RFU CAPN14 (11732068_a_at) / Fold change /veh CAPN14 (11732068_a_at) / RFU TMCC2 (11721928_a_at) / Fold change /veh TMCC2 (11721928_a_at) / RFU IRGQ (11745062_a_at) / Fold change /veh IRGQ (11745062_a_at) / RFU FAM174B (11720279_a_at) / Fold change /veh FAM174B (11720279_a_at) / RFU TMPRSS4 (11748680_a_at) / Fold change /veh TMPRSS4 (11748680_a_at) / RFU FAM212B (11763350_a_at) / Fold change /veh FAM212B (11763350_a_at) / RFU PLEKHG5 (11743358_a_at) / Fold change /veh PLEKHG5 (11743358_a_at) / RFU ZSCAN30 (11745921_a_at) / Fold change /veh ZSCAN30 (11745921_a_at) / RFU CMKLR1 (11741424_a_at) / Fold change /veh CMKLR1 (11741424_a_at) / RFU LOC101060620 /// MAPK8IP1 (11723275_at) / Fold change /veh LOC101060620 /// MAPK8IP1 (11723275_at) / RFU SPTSSB (11747773_x_at) / Fold change /veh SPTSSB (11747773_x_at) / RFU PRSS12 (11739890_at) / Fold change /veh PRSS12 (11739890_at) / RFU BIN1 (11741810_x_at) / Fold change /veh BIN1 (11741810_x_at) / RFU WNT11 (11732464_a_at) / Fold change /veh WNT11 (11732464_a_at) / RFU C10orf10 (11716521_a_at) / Fold change /veh C10orf10 (11716521_a_at) / RFU C5orf56 (11738089_at) / Fold change /veh C5orf56 (11738089_at) / RFU CYB561 (11721691_x_at) / Fold change /veh CYB561 (11721691_x_at) / RFU ANKRD19P (11752326_a_at) / Fold change /veh ANKRD19P (11752326_a_at) / RFU OR2T12 /// OR2T33 /// OR2T8 (11738714_s_at) / Fold change /veh OR2T12 /// OR2T33 /// OR2T8 (11738714_s_at) / RFU VCAN (11748164_a_at) / Fold change /veh VCAN (11748164_a_at) / RFU JSRP1 (11732532_at) / Fold change /veh JSRP1 (11732532_at) / RFU KRTAP10-11 (11738290_x_at) / Fold change /veh KRTAP10-11 (11738290_x_at) / RFU MYO3A (11730013_a_at) / Fold change /veh MYO3A (11730013_a_at) / RFU EBF3 (11725865_a_at) / Fold change /veh EBF3 (11725865_a_at) / RFU CAMK2N1 (11719241_x_at) / Fold change /veh CAMK2N1 (11719241_x_at) / RFU C5orf56 (11738088_a_at) / Fold change /veh C5orf56 (11738088_a_at) / RFU OLFML3 (11715873_a_at) / Fold change /veh OLFML3 (11715873_a_at) / RFU LOC100653217 /// NTM (11731650_a_at) / Fold change /veh LOC100653217 /// NTM (11731650_a_at) / RFU MAPK11 (11762145_a_at) / Fold change /veh MAPK11 (11762145_a_at) / RFU FIZ1 (11724087_x_at) / Fold change /veh FIZ1 (11724087_x_at) / RFU OASL (11726364_x_at) / Fold change /veh OASL (11726364_x_at) / RFU SOX15 (11748057_x_at) / Fold change /veh SOX15 (11748057_x_at) / RFU CD79A (11719716_a_at) / Fold change /veh CD79A (11719716_a_at) / RFU HIST1H1D (11736915_at) / Fold change /veh HIST1H1D (11736915_at) / RFU CASKIN2 (11723855_a_at) / Fold change /veh CASKIN2 (11723855_a_at) / RFU LOC730098 (11760151_x_at) / Fold change /veh LOC730098 (11760151_x_at) / RFU OR4N2 (11742367_at) / Fold change /veh OR4N2 (11742367_at) / RFU PRRT2 (11749266_a_at) / Fold change /veh PRRT2 (11749266_a_at) / RFU SNX32 (11753110_a_at) / Fold change /veh SNX32 (11753110_a_at) / RFU CDHR5 (11726645_a_at) / Fold change /veh CDHR5 (11726645_a_at) / RFU RCAN1 (11760418_a_at) / Fold change /veh RCAN1 (11760418_a_at) / RFU FAM167A (11723789_a_at) / Fold change /veh FAM167A (11723789_a_at) / RFU FAM26E (11764081_at) / Fold change /veh FAM26E (11764081_at) / RFU ISYNA1 (11749810_s_at) / Fold change /veh ISYNA1 (11749810_s_at) / RFU ACY1 (11761880_at) / Fold change /veh ACY1 (11761880_at) / RFU 11764098_at / Fold change /veh 11764098_at / RFU SAMD14 (11745864_x_at) / Fold change /veh SAMD14 (11745864_x_at) / RFU NPB (11741838_a_at) / Fold change /veh NPB (11741838_a_at) / RFU TMPRSS6 (11731388_a_at) / Fold change /veh TMPRSS6 (11731388_a_at) / RFU KRTAP10-2 (11738614_at) / Fold change /veh KRTAP10-2 (11738614_at) / RFU ARHGAP8 /// PRR5-ARHGAP8 (11727945_x_at) / Fold change /veh ARHGAP8 /// PRR5-ARHGAP8 (11727945_x_at) / RFU KRTAP5-7 /// NADSYN1 (11734609_at) / Fold change /veh KRTAP5-7 /// NADSYN1 (11734609_at) / RFU RASL12 (11751679_a_at) / Fold change /veh RASL12 (11751679_a_at) / RFU CDKN2B (11736163_a_at) / Fold change /veh CDKN2B (11736163_a_at) / RFU PRF1 (11729649_at) / Fold change /veh PRF1 (11729649_at) / RFU, ZNF638 /// ZNF638-IT1 / Fold change vs veh, ZNF638 /// ZNF638-IT1 / RFU, PANK3 / Fold change vs veh, PANK3 / RFU, SH3YL1 / Fold change vs veh, SH3YL1 / RFU, ZEB2 / Fold change vs veh, ZEB2 / RFU, NRIP1 / Fold change vs veh, NRIP1 / RFU, PTTG1IP / Fold change vs veh, PTTG1IP / RFU, CAPN2 / Fold change vs veh, CAPN2 / RFU, MED14 / Fold change vs veh, MED14 / RFU, SNORA58 / Fold change vs veh, SNORA58 / RFU, C1orf63 / Fold change vs veh, C1orf63 / RFU, LRRFIP1 / Fold change vs veh, LRRFIP1 / RFU, NDUFAF7 / Fold change vs veh, NDUFAF7 / RFU, SLC12A2 / Fold change vs veh, SLC12A2 / RFU, IBTK / Fold change vs veh, IBTK / RFU, ESF1 / Fold change vs veh, ESF1 / Fold change vs veh, TMEM50B / RFU, TAOK1 / Fold change vs veh, TAOK1 / RFU, ACBD3 / Fold change vs veh, ACBD3 / RFU, TMA16 / Fold change vs veh, TMA16 / RFU, RWDD3 / Fold change vs veh, RWDD3 / RFU, BCAT1 / Fold change vs veh, BCAT1 / RFU, EDEM3 / Fold change vs veh, EDEM3 / RFU, TMEM33 / Fold change vs veh, TMEM33 / RFU, WDR75 / Fold change vs veh, WDR75 / RFU, AHCTF1 / Fold change vs veh, AHCTF1 / RFU, TFRC / Fold change vs veh, TFRC / RFU, ZDHHC17 / Fold change vs veh, ZDHHC17 / RFU, NOM1 / Fold change vs veh, NOM1 / RFU, ARL8B / Fold change vs veh, ARL8B / RFU, ZBTB11 / Fold change vs veh, ZBTB11 / RFU, TAMM41 / Fold change vs veh, TAMM41 / RFU, KIAA1704 /// LOC100996395 / Fold change vs veh, KIAA1704 /// LOC100996395 / RFU, ING1 / Fold change vs veh, ING1 / RFU, TRMT61B / Fold change vs veh, TRMT61B / RFU, FUBP3 / Fold change vs veh, FUBP3 / RFU, TP53 / Fold change vs veh, TP53 / RFU, TNKS2 / Fold change vs veh, TNKS2 / RFU, ZFP14 / Fold change vs veh, ZFP14 / RFU, ACTR2 / Fold change vs veh, ACTR2 / RFU, PPP3R1 / Fold change vs veh, PPP3R1 / RFU, PIK3R1 / Fold change vs veh, PIK3R1 / RFU, HNRNPA1 / Fold change vs veh, HNRNPA1 / RFU, RNF170 / Fold change vs veh, RNF170 / RFU, ZNF28 / Fold change vs veh, ZNF28 / RFU, RNGTT / Fold change vs veh, RNGTT / RFU, OGT / Fold change vs veh, OGT / RFU, BRD1 / Fold change vs veh, BRD1 / RFU, MARS / Fold change vs veh, MARS / RFU, ZNF655 / Fold change vs veh, ZNF655 / RFU, FAHD1 / Fold change vs veh, FAHD1 / RFU, BDP1 / Fold change vs veh, BDP1 / RFU, LRRCC1 / Fold change vs veh, LRRCC1 / RFU, ARID1A / Fold change vs veh, ARID1A / RFU, ZNF146 / Fold change vs veh, ZNF146 / RFU, ZNF330 / Fold change vs veh, ZNF330 / RFU, GPN3 / Fold change vs veh, GPN3 / RFU, C9orf123 / Fold change vs veh, C9orf123 / RFU, N4BP2L2 / Fold change vs veh, N4BP2L2 / RFU, ARFIP1 / Fold change vs veh, ARFIP1 / RFU, FAM179B / Fold change vs veh, FAM179B / RFU, BCL10 / Fold change vs veh, BCL10 / RFU, UHRF1BP1L / Fold change vs veh, UHRF1BP1L / RFU, BET1 / Fold change vs veh, BET1 / RFU, CNOT2 / Fold change vs veh, CNOT2 / RFU, ZNF268 / Fold change vs veh, ZNF268 / Fold change vs veh, ZNF507 / RFU, DGCR2 / Fold change vs veh, DGCR2 / RFU, WDSUB1 / Fold change vs veh, WDSUB1 / Fold change vs veh, HSP90B1 /// MIR3652 / RFU, ADSS / Fold change vs veh, ADSS / RFU, GK / Fold change vs veh, GK / RFU, ZNF148 / Fold change vs veh, ZNF148 / RFU, TAF9 / Fold change vs veh, TAF9 / RFU, SLC1A5 / Fold change vs veh, SLC1A5 / RFU, SLMO2 / Fold change vs veh, SLMO2 / RFU, ABCC4 / Fold change vs veh, ABCC4 / RFU, LOC101060439 /// RAP1B / Fold change vs veh, LOC101060439 /// RAP1B / RFU, RFX7 / Fold change vs veh, RFX7 / RFU, GTPBP10 / Fold change vs veh, GTPBP10 / RFU, CNEP1R1 / Fold change vs veh, CNEP1R1 / RFU, BIVM-ERCC5 /// ERCC5 / Fold change vs veh, BIVM-ERCC5 /// ERCC5 / RFU, ILF3 / Fold change vs veh, ILF3 / RFU 11762660_at / Fold change /veh 11762660_at / RFU VCAN (11757783_s_at) / Fold change /veh VCAN (11757783_s_at) / RFU DDX43 (11728927_at) / Fold change /veh DDX43 (11728927_at) / RFU KRT8 (11758188_x_at) / Fold change /veh KRT8 (11758188_x_at) / RFU NKD1 (11759106_at) / Fold change /veh NKD1 (11759106_at) / RFU SRD5A1 (11742802_a_at) / Fold change /veh SRD5A1 (11742802_a_at) / RFU TPSAB1 /// TPSB2 (11721975_s_at) / Fold change /veh TPSAB1 /// TPSB2 (11721975_s_at) / RFU GSTM3 (11746129_a_at) / Fold change /veh GSTM3 (11746129_a_at) / RFU IL23R (11737362_x_at) / Fold change /veh IL23R (11737362_x_at) / RFU TMEM51 (11727254_a_at) / Fold change /veh TMEM51 (11727254_a_at) / RFU PIWIL2 (11732686_x_at) / Fold change /veh PIWIL2 (11732686_x_at) / RFU ORM1 (11744905_x_at) / Fold change /veh ORM1 (11744905_x_at) / RFU CCDC152 (11743942_at) / Fold change /veh CCDC152 (11743942_at) / RFU ECM1 (11717891_a_at) / Fold change /veh ECM1 (11717891_a_at) / RFU IL23R (11748794_a_at) / Fold change /veh IL23R (11748794_a_at) / RFU TNFAIP8L3 (11732012_x_at) / Fold change /veh TNFAIP8L3 (11732012_x_at) / RFU MBOAT4 (11741988_at) / Fold change /veh MBOAT4 (11741988_at) / RFU 11764193_at / Fold change /veh 11764193_at / RFU TMEM53 (11763286_at) / Fold change /veh TMEM53 (11763286_at) / RFU MAGEB2 (11727129_at) / Fold change /veh MAGEB2 (11727129_at) / RFU TMEM200A (11744735_a_at) / Fold change /veh TMEM200A (11744735_a_at) / RFU CCDC152 (11751479_a_at) / Fold change /veh CCDC152 (11751479_a_at) / RFU FAM211A (11726209_a_at) / Fold change /veh FAM211A (11726209_a_at) / RFU RGS16 (11746705_a_at) / Fold change /veh RGS16 (11746705_a_at) / RFU VCAN (11755009_s_at) / Fold change /veh VCAN (11755009_s_at) / RFU RHOB (11743442_s_at) / Fold change /veh RHOB (11743442_s_at) / RFU RGS16 (11720943_a_at) / Fold change /veh RGS16 (11720943_a_at) / RFU RGS16 (11720944_at) / Fold change /veh RGS16 (11720944_at) / RFU, VPS4B / Fold change vs veh, VPS4B / RFU, CREB1 / Fold change vs veh, CREB1 / RFU, DNAJC13 / Fold change vs veh, DNAJC13 / RFU, GNAQ / Fold change vs veh, GNAQ / RFU, CDK5R1 / Fold change vs veh, CDK5R1 / RFU, ZRANB3 / Fold change vs veh, ZRANB3 / RFU, CUL4A / Fold change vs veh, CUL4A / RFU, CCNY / Fold change vs veh, CCNY / RFU, UFL1 / Fold change vs veh, UFL1 / RFU, COG3 / Fold change vs veh, COG3 / RFU, DIAPH2 / Fold change vs veh, DIAPH2 / RFU, SKA2 / Fold change vs veh, SKA2 / RFU, AFF3 / Fold change vs veh, AFF3 / RFU, LMF1 / Fold change vs veh, LMF1 / RFU, IPO11 / Fold change vs veh, IPO11 / RFU, DFFB / Fold change vs veh, DFFB / RFU, FOXP1 / Fold change vs veh, FOXP1 / RFU, CARD8 / Fold change vs veh, CARD8 / RFU, STRN3 / Fold change vs veh, STRN3 / RFU, ADK / Fold change vs veh, ADK / RFU, RASSF2 / Fold change vs veh, RASSF2 / RFU, WIPF1 / Fold change vs veh, WIPF1 / RFU, LARP1B / Fold change vs veh, LARP1B / RFU, RASA1 / Fold change vs veh, RASA1 / RFU, RB1 / Fold change vs veh, RB1 / RFU, PPFIA1 / Fold change vs veh, PPFIA1 / RFU, MAT2A / Fold change vs veh, MAT2A / RFU, CCT5 / Fold change vs veh, CCT5 / RFU, WDR92 / Fold change vs veh, WDR92 / RFU, CUX1 / Fold change vs veh, CUX1 / RFU, TTC7A / Fold change vs veh, TTC7A / RFU, TMEM135 / Fold change vs veh, TMEM135 / RFU, DEPTOR / Fold change vs veh, DEPTOR / RFU, CPM / Fold change vs veh, CPM / RFU, DNAJB6 / Fold change vs veh, DNAJB6 / RFU, CACNA2D3 / Fold change vs veh, CACNA2D3 / RFU, DTX4 / Fold change vs veh, DTX4 / RFU, TFCP2 / Fold change vs veh, TFCP2 / RFU, GMCL1 /// GMCL1P1 / Fold change vs veh, GMCL1 /// GMCL1P1 / RFU, AEBP2 / Fold change vs veh, AEBP2 / RFU, SNHG1 /// SNORD22 /// SNORD25 /// SNORD26 /// SNORD27 /// SNORD28 /// SNORD29 /// SNORD31 / Fold change vs veh, SNHG1 /// SNORD22 /// SNORD25 /// SNORD26 /// SNORD27 /// SNORD28 /// SNORD29 /// SNORD31 / Fold change (Aza/veh), C12orf56 (ProbeSet 11735607_a_at) / Fold change (ACY-1035/veh), C12orf56 (ProbeSet 11735607_a_at) / Fold change (Aza/veh), FGFR1OP (ProbeSet 11751329_s_at) / Fold change (ACY-1035/veh), FGFR1OP (ProbeSet 11751329_s_at) / Fold change (Aza/veh), VPS36 (ProbeSet 11739960_a_at) / Fold change (ACY-1035/veh), VPS36 (ProbeSet 11739960_a_at) / RFU SYPL1 (11715823_x_at) / Fold change /veh SYPL1 (11715823_x_at) / RFU IGFBP7 (11715501_s_at) / Fold change /veh IGFBP7 (11715501_s_at) / RFU REEP3 (11722064_at) / Fold change /veh REEP3 (11722064_at) / RFU IGLL1 (11728026_x_at) / Fold change /veh IGLL1 (11728026_x_at): dose or concentration left out as unconfirmed
Settings: ProbeSet 11721521_at; LIST B

Compound: Nc1ccc(-c2cccs2)cc1NC(=O)c1ccc2c(c1)cc(C1CC1)n2CCN1CCOCC1 [ACY-1035]
- RFU, ZDHHC17: 49.20 RFU
